According to patent publication US12054447B2, “PCNA inhibitors” (City of Hope, priority 2015, dated 2024):

How the values were obtained:
[1] = test system: SK-N-AS; experiment: Cell growth, CellTitor-Glo assay, 72 h; type: cell-based; details: Homo sapiens
Experimental: (§1) The human NB cell lines, SK-N-DZ, SK-N-BE(2)c, SK-N-AS, and LAN-5 obtained from the American Type Culture Collection (Rockville, MD), were cultured in DMEM with 10% fetal bovine serum (FBS), 100 units/ml penicillin, and 100 μg/ml streptomycin in the presence of 5% CO2 at 37° C. Human PBMCs from a healthy donor were purchased from Sanguine BioSciences (Valencia, CA) and grown in RPMI1640 with 10% FBS, 100 units/ml penicillin, 100 μg/ml streptomycin, and 10 ng/ml IL-2 in the presence of 5% CO2 at 37° C. Human embryonic progenitor cell line 7SM0032 was acquired from Millipore (Billerica, MA) and grown in the hEPM-1 Media Kit purchased from the same company. The plasmid pCBASce expresses the rare cutting I-SceI meganuclease. The U20S-derived cell lines, DR-GFP and EJ5-GFP, each contain a stably transfected reporter gene for DSB repair mediated by HR and end joining (EJ), respectively. These cell lines were cultured in DMEM medium with 10% FBS at 37° C. in the presence of 5% CO2.
(§2) To measure the effect of the compounds on cell growth, cells were seeded at 3×10^4/ml into a 96-well plate. Once attached, cells were treated with various concentrations of AOH1160 for 72 h. Cell growth was measured by the CellTitor-Glo assay (Promega, Madison, WI) according to the manufacturer's instructions. To measure apoptosis, cells were seeded at 1×10^5/ml onto a chamber slide. Once attached, cells were treated with the 500 nM AOH1160 for 24 h. Cells were fixed and analyzed by a TUNEL assay using the TMR red in situ cell death detection kit (Roche Diagnostics, Indianapolis, IN).

[2] = test system: neuroblastoma cell lines; experiment: IC50 in Table 3, cell line not stated; type: cell-based; details: Homo sapiens
From the text: In addition numerous analogs related to AOH1160 were screened in numerous neuroblastoma cell lines for anti-cancer activity (Table 2). AOH1160 was screened for anti-cancer activity in additional cancer cell lines besides neuroblastoma (Table 3).

[3] = test system: 7SM0032; experiment: Cell growth, CellTitor-Glo assay, 72 h; type: cell-based, human; details: human neural crest stem cells (7SM0032)
Experimental: as §1, §2

[4] = test system: PBMC; experiment: Cell growth, CellTitor-Glo assay, 72 h; type: cell-based, human
Experimental: as §1, §2

[5] = test system: NB cell lines; experiment: Cell viability assay on NB cell lines; type: cell-based, human; details: Homo sapiens; multiple NB cell lines; read-out: IC50 range over NB cell lines
Experimental: as §2
To identify small molecule compounds that target the PCNA and FEN1 interface, we started with known crystal structures of the PCNA/FEN1 complex that are available from the RCSB protein database. To improve the likelihood of identifying novel small molecules that specifically target caPCNA, we focused our virtual screen on the binding pocket in PCNA delineated by residues L126 and Y133 and screened databases consisting of more than 6.8 million chemical structures available at the AMRI. A set of 57 compounds identified by the virtual screen was acquired and further tested in a cell viability assay. A compound (AOH39) was selected for further development due to its anti-cancer activity and selectivity.

[6] = test system: SK-N-BE(2)c; experiment: Cell growth, CellTitor-Glo assay, 72 h; type: cell-based; details: Homo sapiens
Experimental: as §1, §2

[7] = test system: SK-N-DZ; experiment: Cell growth, CellTitor-Glo assay, 72 h; type: cell-based; details: Homo sapiens
Experimental: as §1, §2

Row | Structure (SMILES) | IC50 [1] | IC50 [2] | further results
1 | O=C(CNC(=O)c1cccc2ccccc12)Nc1cccc(Oc2ccncc2)c1 [#1161] | 21.6 µM | 21.6 µM | –
2 | O=C(CNC(=O)c1cccc2ccccc12)Nc1ccccc1Oc1ccncc1 [#1162] | > 50 µM | > 50 µM | –
3 | O=C(CNC(=O)c1nccc2ccccc12)Nc1ccccc1Oc1ccccc1 [#1165] | 35 µM | 35 µM | –
4 | O=C(CNC(=O)c1nccc2ccccc12)Nc1cccc(Oc2ccncc2)c1 [#1166] | > 30 µM | 34 µM | –
5 | O=C(CNC(=O)c1nccc2ccccc12)Nc1ccccc1Oc1ccncc1 [#1167] | – | 4.2 µM | –
6 | O=C(CNC(=O)c1cncc2ccccc12)Nc1ccccc1Oc1ccccc1 [#1175] | > 30 µM | > 30 µM | –
7 | O=C(CNC(=O)c1cncc2ccccc12)Nc1cccc(Oc2ccncc2)c1 [#1176] | > 30 µM | – | –
8 | O=C(CNC(=O)c1cncc2ccccc12)Nc1ccccc1Oc1ccncc1 [#1177] | – | > 30 µM | –
9 | O=C(CNC(=O)c1cccc2ccccc12)Nc1ccc(Oc2ccncc2)cc1 [#1178] | 1.1 µM | 1.1 µM | –
10 | O=C(CNC(=O)c1cccc2ccccc12)Nc1ccccc1Cc1ccccc1 [AOH39, N-(2-((2-benzylphenyl)amino)-2-oxoethyl)-1-naphthamide, reference compound] | – | – | IC50 [3]: ~100 µM; IC50 ([4]; human peripheral blood mononuclear cells (PBMC)): 15.4 µM; IC50 [5]: 1.3 to 2.8 µM

Second part, led by results:

Row | IC50 [1] | IC50 [2] | Structure (SMILES) | further results
11 | > 30 µM | > 30 µM | O=C(CNC(=O)c1nccc2ccccc12)Nc1ccc(Oc2ccncc2)cc1 [AOH1179] | –
12 | > 30 µM | > 30 µM | O=C(CNC(=O)c1cncc2ccccc12)Nc1ccc(Oc2ccncc2)cc1 [AOH1180] | –
13 | 0.185 µM | – | O=C(CNC(=O)c1cccc2ccccc12)Nc1ccc(Cl)cc1Oc1ccccc1 [PCNA4] | IC50 [6]: 0.5 µM; IC50 [7]: 0.447 µM; IC50 ([4]; Homo sapiens, PBMC (non-malignant)): > 20 µM
